Biological target: T1, Cyclic GMP-AMP synthase (Homo sapiens, UniProt Q8N884)
Assay: Inhibition of recombinant His6-SUMO tagged human CGAS expressed in Escherichia coli BL21/pLys cells incubated for 20 mins by Kinase Glo chemiluminescence assay

T1 sequence (Q8N884 whole entry): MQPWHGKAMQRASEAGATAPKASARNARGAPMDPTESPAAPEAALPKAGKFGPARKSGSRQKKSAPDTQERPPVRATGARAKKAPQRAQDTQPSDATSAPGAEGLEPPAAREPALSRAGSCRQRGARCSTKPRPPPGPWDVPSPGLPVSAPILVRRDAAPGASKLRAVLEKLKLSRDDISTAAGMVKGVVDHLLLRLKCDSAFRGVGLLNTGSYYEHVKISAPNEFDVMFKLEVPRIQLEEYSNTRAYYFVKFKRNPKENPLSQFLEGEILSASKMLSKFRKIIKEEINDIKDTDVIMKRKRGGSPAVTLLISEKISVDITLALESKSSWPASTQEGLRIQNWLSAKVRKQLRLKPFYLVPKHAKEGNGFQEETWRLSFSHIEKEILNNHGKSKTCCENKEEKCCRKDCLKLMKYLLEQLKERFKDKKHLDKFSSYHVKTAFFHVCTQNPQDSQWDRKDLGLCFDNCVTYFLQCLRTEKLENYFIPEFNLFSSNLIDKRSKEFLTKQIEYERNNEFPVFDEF

Structure (SMILES) | IC50
CC(Oc1cc(/C=C2\SC(=O)N(C)C2=O)c(Br)c(F)c1O)c1cncnc1N (stereo not drawn) | 0.5 to 10 µM
COc1cc(/C=C2\Sc3ccccc3C2=O)c(Br)cc1O | 0.5 to 10 µM
COc1cc(/C=C2\SC(=O)N(C)C2=O)c(Cl)cc1O | ≤ 0.5 µM
CCN1C(=O)S/C(=C\c2cc(OC)c(O)cc2Br)C1=O | 0.5 to 10 µM
CCOc1cc(/C=C2\SC(=O)N(C)C2=O)c(Br)cc1O | ≤ 0.5 µM
O=C1/C(=C/c2cc(OCc3cccnc3)c(O)cc2Br)Sc2ncccc21 | ≤ 0.5 µM
CN1C(=O)S/C(=C\c2cc(OCc3cccc4[nH]ccc34)c(O)cc2Br)C1=O | 0.5 to 10 µM
O=C1/C(=C/c2cc(OCc3ccncc3)c(O)cc2Br)Sc2ncccc21 | ≤ 0.5 µM
CN1C(=O)S/C(=C\c2cc(OCc3ccc4cccnc4c3)c(O)cc2Br)C1=O | ≥ 10 µM
[2H]C(C)(Oc1cc(/C=C2\SC(=O)N(C)C2=O)c(Br)c(F)c1O)c1cnc(N)nc1 (stereo not drawn) | ≤ 0.5 µM
CC(C)COc1cc(/C=C2\SC(=O)N(C)C2=O)c(Br)cc1O | ≥ 10 µM
CN1C(=O)S/C(=C\c2cc(OCc3cnc(S(C)(=O)=O)nc3Cl)c(O)cc2Br)C1=O | ≥ 10 µM
COc1cc(/C=C2\Sc3nccnc3C2=O)c(Br)cc1O | ≥ 10 µM
COc1cc(/C=C2\Sc3ncc(F)cc3C2=O)c(Br)cc1O | ≤ 0.5 µM
Cc1ncc(COc2cc(/C=C3\Sc4ncccc4C3=O)c(Br)cc2O)c(C)n1 | ≤ 0.5 µM
CC(C)CNc1cncc(COc2cc(/C=C3\SC(=O)N(C)C3=O)c(Br)cc2O)c1 | ≥ 10 µM
CC(Cc1cnc(N)nc1)Oc1cc(/C=C2\SC(=O)N(C)C2=O)c(Br)c(F)c1O (stereo not drawn) | 0.5 to 10 µM
CN1C(=O)S/C(=C\c2cc(OCc3cnc(N4CCOCC4)nc3)c(O)cc2Br)C1=O | ≥ 10 µM
O=C1NC(=O)/C(=C/c2ccnnc2)N1 | ≥ 10 µM
Nc1ncc(/C=C/c2cc(/C=C3\Sc4ncccc4C3=O)c(Br)cc2O)cn1 | ≤ 0.5 µM
COc1cc(/C=C2\SC(=O)N(C)C2=O)c(Br)cc1OCc1ccncc1 | ≥ 10 µM
COc1cc(/C=c2\sc3n(c2=O)CCCN=3)c(Br)cc1O | ≥ 10 µM
CC(C)Nc1ncc(COc2cc(/C=C3\SC(=O)N(C)C3=O)c(Br)cc2O)cn1 | ≥ 10 µM
CN1C(=O)S/C(=C\c2cc(OCC3CCN(C(=O)c4ccccc4)CC3)c(O)cc2Br)C1=O | ≥ 10 µM
CN1C(=O)S/C(=C\c2cc3nn[nH]c3cc2Br)C1=O | ≥ 10 µM
CN1C(=O)S/C(=C\c2cc(OCc3cnc(N4CCCC4)nc3)c(O)cc2Br)C1=O | ≥ 10 µM

Structure (SMILES) | IC50
CC(C)c1cc(/C=C2\SC(=O)N(C)C2=O)c(Br)cc1O | ≥ 10 µM
CN1C(=O)S/C(=C\c2cc(OCC3(c4cnc(N)nc4)CC3)c(O)c(F)c2Br)C1=O | 0.5 to 10 µM
CC(Oc1cc(/C=C2\SC(=O)N(C)C2=O)c(Br)cc1O)c1cncnc1 (stereo not drawn) | 0.5 to 10 µM
CC/N=C1/S/C(=C\c2cc(OC)c(O)cc2Br)C(=O)N1C | ≥ 10 µM
COc1cc(/C=c2\sc3n(c2=O)CCN=3)c(Br)cc1O | ≥ 10 µM
CC(Oc1cc(/C=C2\SC(=O)N(C)C2=O)c(Br)c(F)c1O)c1cncnc1 (stereo not drawn) | ≥ 10 µM
COc1cc(/C=c2\sc3nc(C)cn3c2=O)c(Br)cc1O | ≥ 10 µM
Cc1ncc(COc2cc(/C=C3\SC(=O)N(C)C3=O)c(Br)c(F)c2O)cn1 | 0.5 to 10 µM
O=C1NC(=O)/C(=C/c2ccncc2)N1 | 0.5 to 10 µM
CN1C(=O)S/C(=C\c2cc(OCc3cncc(NCc4ccncc4)c3)c(O)cc2Br)C1=O | ≥ 10 µM
CN1C(=O)S/C(=C\c2cc(CC(F)(F)F)c(O)cc2Br)C1=O | 0.5 to 10 µM
Cc1ncc(COc2cc(/C=C3\SC(=O)N(C)C3=O)c(Br)cc2O)cn1 | ≤ 0.5 µM
CN1C(=O)S/C(=C\c2cc(OCc3ccnc(N)n3)c(O)cc2Br)C1=O | 0.5 to 10 µM
COc1nc(S(C)(=O)=O)ncc1COc1cc(/C=C2\SC(=O)N(C)C2=O)c(Br)cc1O | ≥ 10 µM
CN1C(=O)S/C(=C\c2cc(OCCc3ccncc3)c(O)cc2Br)C1=O | 0.5 to 10 µM
CN1C(=O)S/C(=C\c2cc(OCC(F)(F)c3cnc(N)nc3)c(O)c(F)c2Br)C1=O | 0.5 to 10 µM
CN1C(=O)S/C(=C\c2cc(OCc3cncc(NC(=O)c4cccnc4)c3)c(O)cc2Br)C1=O | ≥ 10 µM
CN1C(=O)S/C(=C\c2cc(Oc3cccc(O)c3N)c(O)cc2Br)C1=O | ≥ 10 µM
Cc1nc(N)ncc1C(C)Oc1cc(/C=C2\SC(=O)N(C)C2=O)c(Br)cc1O (stereo not drawn) | ≥ 10 µM
CCc1cc(/C=C2\SC(=O)N(C)C2=O)c(Br)cc1O | 0.5 to 10 µM
CSc1ncc(COc2cc(/C=C3\SC(=O)N(C)C3=O)c(Br)cc2O)c(SC)n1 | ≥ 10 µM
COc1cc(/C=C2\SC(=O)N(C)C2=O)c(Br)cc1-c1nn[nH]n1 | ≥ 10 µM
CSc1ncc(COc2cc(/C=C3\SC(=O)N(C)C3=O)c(Br)cc2O)c(Cl)n1 | ≥ 10 µM
CN1C(=O)S/C(=C\c2cc3c(-c4ccc(N)cc4)c[nH]c3cc2Br)C1=O | 0.5 to 10 µM
CSc1ccc(CCc2cc(/C=C3\SC(=O)N(C)C3=O)c(Br)cc2O)cc1 | 0.5 to 10 µM
CC(C)c1cc(/C=C2\Sc3ncccc3C2=O)c(Br)cc1O | ≥ 10 µM

Structure (SMILES) | IC50
C#Cc1cc(O)c(OC)cc1/C=C1\SC(=O)N(C)C1=O | ≥ 10 µM
CC(=O)c1cc(N)ccc1Oc1cc(/C=C2\SC(=O)N(C)C2=O)c(Br)c(F)c1O | ≥ 10 µM
CN1C(=O)S/C(=C\c2cc(OCc3ccc4ncccc4c3)c(O)cc2Br)C1=O | ≥ 10 µM
CN1C(=O)S/C(=C\c2cc3cc[nH]c3cc2Br)C1=O | 0.5 to 10 µM
CN1C(=O)S/C(=C\c2cc(OCc3cccc4cnccc34)c(O)cc2Br)C1=O | ≥ 10 µM
CN1C(=O)S/C(=C\c2cc(Oc3ccc(-c4ccccn4)cc3)c(O)cc2Br)C1=O | ≥ 10 µM
CC(=O)Nc1nc(S(=O)(=O)Nc2cc(Br)c(/C=C3\SC(=O)N(C)C3=O)cc2OCc2ccccc2)cs1 | 0.5 to 10 µM
CN1C(=O)S/C(=C\c2cc(OCc3cnc(NCc4ccccn4)nc3)c(O)c(F)c2Br)C1=O | ≥ 10 µM
COc1cc2c(cc1O)CC/C2=C1/SC(=O)N(C)C1=O | ≥ 10 µM
CN1C(=O)S/C(=C\c2cc(OCc3cnc(Nc4ccncc4)nc3)c(O)cc2Br)C1=O | ≤ 0.5 µM
COc1cc(/C=C2\Sc3ncccc3C2=O)c(I)cc1O | ≤ 0.5 µM
CN1C(=O)S/C(=C\c2cc(OCc3cnc(-c4ccncc4)nc3)c(O)cc2Br)C1=O | ≤ 0.5 µM
CNc1ncc(C(C)Oc2cc(/C=C3\SC(=O)N(C)C3=O)c(Br)cc2O)cn1 (stereo not drawn) | ≥ 10 µM
CN1CCN(c2ncc(COc3cc(/C=C4\SC(=O)N(C)C4=O)c(Br)cc3O)cn2)CC1 | ≥ 10 µM
CN1C(=O)S/C(=C\c2cc(OC(F)(F)F)c(Oc3cnc(N)s3)cc2Br)C1=O | ≥ 10 µM
CNc1ncc(COc2cc(/C=C3\SC(=O)N(C)C3=O)c(Br)c(F)c2O)cn1 | ≤ 0.5 µM
Cc1nc2c(Oc3cc(/C=C4\SC(=O)N(C)C4=O)c(Br)cc3O)cccc2o1 | 0.5 to 10 µM
CN1C(=O)S/C(=C\c2cc(OCc3cnc(N)nc3C(F)(F)F)c(O)cc2Br)C1=O | ≤ 0.5 µM
Cc1ncc(C(C)Oc2cc(/C=C3\SC(=O)N(C)C3=O)c(Br)cc2O)cn1 (stereo not drawn) | ≥ 10 µM
CN1C(=O)S/C(=C\c2cc(OCc3ccnc4ccccc34)c(O)cc2Br)C1=O | ≥ 10 µM
O=C1/C(=C/c2cc(OCc3cnc(NCc4cccnc4)nc3)c(O)cc2Br)Sc2ncccc21 | ≤ 0.5 µM
CN1C(=O)S/C(=C\c2cc(OCc3cnc(S)nc3)c(O)cc2Br)C1=O | ≥ 10 µM
Cc1nc(N)nc(C)c1COc1cc(/C=C2\SC(=O)N(C)C2=O)c(Br)cc1O | ≥ 10 µM
CN1C(=O)S/C(=C\c2cc(OCc3ccnc(N)c3)c(O)cc2Br)C1=O | 0.5 to 10 µM
O=C1NC(=O)/C(=C/c2ccncc2)S1 | ≤ 0.5 µM
CN1C(=O)S/C(=C\c2cc3cc[nH]c3c(F)c2Br)C1=O | 0.5 to 10 µM

Structure (SMILES) | IC50
CC(C)C(=O)Nc1cncc(COc2cc(/C=C3\SC(=O)N(C)C3=O)c(Br)cc2O)c1 | ≥ 10 µM
CN1C(=O)S/C(=C\c2cc(OCc3ccn(Cc4ccccc4)c(=O)c3)c(O)cc2Br)C1=O | ≥ 10 µM
Cc1nc(N)ncc1C(C)Oc1cc(/C=C2\Sc3ncccc3C2=O)c(Br)c(F)c1O (stereo not drawn) | ≤ 0.5 µM
CN1C(=O)S/C(=C\c2cc(OCC(=O)Nc3nncs3)c(O)c(F)c2Br)C1=O | 0.5 to 10 µM
CCC/N=C1/S/C(=C\c2cc(OC)c(O)cc2Br)C(=O)N1C | ≥ 10 µM
COc1cc(/C=C2\SC(=O)N(C)C2=O)c(Br)cc1NS(=O)(=O)c1ccc(C)cc1 | ≥ 10 µM
CN1C(=O)S/C(=C\c2cc(OCc3cnc(O)nc3)c(O)cc2Br)C1=O | ≥ 10 µM
CN1C(=O)S/C(=C\c2cc(Oc3ccncc3)c(O)cc2Br)C1=O | ≥ 10 µM
CN1C(=O)S/C(=C\c2cc(OCc3cnc(-n4cccn4)nc3)c(O)cc2Br)C1=O | 0.5 to 10 µM
O=C1NC(=O)/C(=C2\CCCc3cnccc32)S1 | ≤ 0.5 µM
COc1nc(N)ncc1COc1cc(/C=C2\SC(=O)N(C)C2=O)c(Br)cc1O | ≥ 10 µM
C/N=C1/S/C(=C\c2cc(OC)c(O)cc2Br)C(=O)N1C | ≥ 10 µM
CN1C(=O)S/C(=C\c2cc(OCc3cnc(NCc4ccncc4)nc3)c(O)c(F)c2Br)C1=O | ≤ 0.5 µM
CC(Oc1cc(/C=C2\SC(=O)N(C)C2=O)c(Br)c(F)c1Oc1cnc(N)s1)c1cnc(N)nc1 (stereo not drawn) | 0.5 to 10 µM
CN1C(=O)S/C(=C\c2cc(OCc3cnc(Nc4cccnc4)nc3)c(O)cc2Br)C1=O | 0.5 to 10 µM
CN1C(=O)S/C(=C\c2cc(OCc3cc[nH]c(=O)c3)c(O)cc2Br)C1=O | 0.5 to 10 µM
COc1cc(/C=C2\Sc3cnccc3C2=O)c(Br)cc1O | ≤ 0.5 µM
COc1cc(/C=C2\SC(=O)N(C)C2=O)c(Br)c(Cl)c1O | ≥ 10 µM
CC(Oc1cc(/C=C2\SC(=O)N(C)C2=O)c(Br)c(F)c1O)C(O)c1cncnc1N (stereo not drawn) | ≤ 0.5 µM
CN1C(=O)S/C(=C\c2cc(OCc3cncnc3O)c(O)cc2Br)C1=O | ≤ 0.5 µM
CN1C(=O)S/C(=C\c2cc(OCC3CCN(C(=O)c4cccnc4)CC3)c(O)cc2Br)C1=O | 0.5 to 10 µM
COc1cc(/C=C2\SC(=O)N(C)C2=O)c(Br)cc1NS(=O)(=O)C(F)(F)F | 0.5 to 10 µM
CN1C(=O)S/C(=C\c2cc(OCc3ccccn3)c(O)cc2Br)C1=O | ≥ 10 µM

Biological target: T1, Cyclic GMP-AMP synthase
Assay: Inhibition of CGAS in human THP1 cells transfected with interferon stimulatory DNA and measured after 16 hrs by Gaussia luciferase reporter gene assay
Format: cell-based

Structure (SMILES) | IC50
CC(Oc1cc(/C=C2\SC(=O)N(C)C2=O)c(Br)c(F)c1O)c1cncnc1N (stereo not drawn) | ≥ 10 µM
COc1cc(/C=C2\Sc3ccccc3C2=O)c(Br)cc1O | ≤ 2.5 µM
COc1cc(/C=C2\SC(=O)N(C)C2=O)c(Cl)cc1O | ≤ 2.5 µM
CCN1C(=O)S/C(=C\c2cc(OC)c(O)cc2Br)C1=O | 2.5 to 10 µM
CCOc1cc(/C=C2\SC(=O)N(C)C2=O)c(Br)cc1O | ≤ 2.5 µM
O=C1/C(=C/c2cc(OCc3cccnc3)c(O)cc2Br)Sc2ncccc21 | 2.5 to 10 µM
CN1C(=O)S/C(=C\c2cc(OCc3cccc4[nH]ccc34)c(O)cc2Br)C1=O | 2.5 to 10 µM

— ChEMBL document CHEMBL4418308, “cGAS ANTAGONIST COMPOUNDS” (2017)
